Patent US20260193619A1, “CULTURE MEDIUM COMPOSITION” (priority 2023, published 2026)

Tests used:
HEK293 = assay: Effect of sodium dichloroacetate on proliferation of HEK293 in suspension culture (viable cell density); assay type: cell-based, human; settings: HEK293 (Viral Production Cells 2.0), Viral Production Medium + 5 mM sodium dichloroacetate vs medium without, 3 days, FIG. 1
Protocol: (§1) In the following Example 1, the ability of human embryonic kidney cell 293 (HEK293) to produce AAV was evaluated using sodium dichloroacetate. The reagents, cells, and medium used are as follows: • Sodium dichloroacetate: Sodium dichloroacetate (FUJIFILM Wako Pure Chemical Industries, Ltd., 326-87772) • HEK293: Viral Production Cells 2.0 (Thermo Fisher Scientific, A49784) • medium for HEK293: Viral Production Medium (Thermo Fisher Scientific: A4817901)
(§2) Viral Production Cells 2.0 were seeded in 30 mL of Viral Production Medium supplemented with GlutaMAXIM Supplement (Thermo Fisher Scientific: 35050061) to a final concentration of 4 mM in a 125 mL Erlenmeyer flask (VIOLAMO, SEF125V). The cells were then cultured in an incubator set at 37° C., 8% CO2 under stirring for two passages. […] On day 3, the number of viable cells was measured using a viable cell autoanalyzer Vi-CELL BLU (manufactured by Becman). […] 2 (Takara Bio: 6233), and the AAV8 genome titer was measured using 7500 Fast Real-Time PCR System (Thermo Fisher Scientific: 4357362). In addition, the number of viral particles was also measured using AAV-8 Titration ELISA Kit (PROGEN Biotechnik: PRAAV8). The full/empty capsid ratio (full capsid ratio) was calculated therefrom.

AAV8 = assay: Production of AAV8 in HEK293 by adding sodium dichloroacetate (genome titer by real-time PCR, particles by ELISA, full capsid ratio); assay type: cell-based, human; settings: HEK293, 5 mM sodium dichloroacetate, 3 days after transfection, medium without DCA = 100%
Protocol: as §1, §2

Human adenovirus 32 = assay: Production of adenovirus in HEK293 by adding sodium dichloroacetate in suspension culture system; assay type: cell-based; settings: HEK293 2.sus, CDM4HEK293 with or without sodium dichloroacetate, MOI 0.1
Protocol: In the following Example, the ability of human embryonic kidney cell 293 (HEK293) to produce adenovirus can be evaluated using sodium dichloroacetate. […] The cell number is measured using a hemocytometer and glutamine-containing 293 SFM II is added to 3×10^5 cells/mL. […] The cell number is measured using a hemocytometer and the culture solution is added to 3×10^5 cells/mL. 5 ML of the adjusted cell suspension is added to two Petri dishes and culturing with shaking (50 rpm) is performed in a CO2 incubator for 3-4 days. • (11) After culturing, steps (8) to (10) are repeated three times. • (12) After culturing for 3 days, the cell number is measured (FIG. 1) and adjusted to 1×10^5 cells/ml using CDM4HEK293 with or without addition of sodium dichloroacetate, and 5 mL thereof is added per Petri dish. […]

O=C([O-])C(Cl)Cl.[Na+] [sodium dichloroacetate, Sodium dichloroacetate]
cell proliferation (viable cell density before dilution on day 3 after seeding) (HEK293): slightly inhibited cell proliferation
AAV8 genome titer (relative) (AAV8; FIG. 2): improvements
full capsid ratio (relative) (AAV8; FIG. 3): improvements
adenovirus titer (Human adenovirus 32): Improvement
